Data published in the supplement of paper PMC10307832.

Key:
Assay in all cases: relative viability (nuclei count vs DMSO), 5 days (fraction); higher = more cells survive
NCI-H2023 = tested on: NCI-H2023
Summary of the method: (§1)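 For relative viability, nuclei counts in treated wells were divided by those in vehicle wells. Lung cancer cell lines had been pin-tool dosed in 1536-well plates the day after seeding and cultured for 5 days, then fixed and stained in one step (final 0.05% Triton X-100, 1% formaldehyde, 1 ug/ml Hoechst) and imaged at 4×. Doses were one drug alone or a fixed anchor-drug dose plus five library-drug doses (not always all listed) in √10 steps, and values are duplicate-plate medians.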

COR-L23 = tested on: COR-L23
Summary of the method: as §1

HCC-366 = tested on: HCC-366
Summary of the method: as §1

SW 1573 = tested on: SW 1573
Summary of the method: as §1

NCI-H3122 = tested on: NCI-H3122
Summary of the method: as §1

NCI-H2009 = tested on: NCI-H2009
Summary of the method: as §1

ABC-1 = tested on: ABC-1
Summary of the method: as §1

EPLC-272H = tested on: EPLC-272H
Summary of the method: as §1

HCC-15 = tested on: HCC-15
Summary of the method: as §1

PC-14 = tested on: PC-14
Summary of the method: as §1

NCI-H1355 = tested on: NCI-H1355
Summary of the method: as §1

NCI-H2228 = tested on: NCI-H2228
Summary of the method: as §1

NCI-H2347 = tested on: NCI-H2347
Summary of the method: as §1

NCI-H1944 = tested on: NCI-H1944
Summary of the method: as §1

NCI-H1793 = tested on: NCI-H1793
Summary of the method: as §1

NCI-H2085 = tested on: NCI-H2085
Summary of the method: as §1

HCC-827 = tested on: HCC-827
Summary of the method: as §1

ChaGo-K-1 = tested on: ChaGo-K-1
Summary of the method: as §1

LCLC-103H = tested on: LCLC-103H
Summary of the method: as §1

NCI-H2405 = tested on: NCI-H2405
Summary of the method: as §1

NCI-H1734 = tested on: NCI-H1734
Summary of the method: as §1

## Cc1cn(-c2cc(NC(=O)c3ccc(C)c(Nc4nccc(-c5cccnc5)n4)c3)cc(C(F)(F)F)c2)cn1 [Nilotinib] + COc1cc2c(Oc3ccc(NC(=O)C4(C(=O)Nc5ccc(F)cc5)CC4)cc3F)ccnc2cc1OCCCN1CCOCC1 [Foretinib] (partner 0.25 µM)
NCI-H2023; first compound 0.001 µM
  relative viability: 0.839
NCI-H2023; first compound 0.01 µM
  relative viability: 1.01
NCI-H2023; first compound 0.03162 µM
  relative viability: 0.88
NCI-H2023; first compound 0.1 µM
  relative viability: 0.875
COR-L23; first compound 0.001 µM
  relative viability: 0.853
COR-L23; first compound 0.003162 µM
  relative viability: 1.28
COR-L23; first compound 0.01 µM
  relative viability: 1.13
COR-L23; first compound 0.03162 µM
  relative viability: 0.821
COR-L23; first compound 0.1 µM
  relative viability: 0.924
HCC-366; first compound 0.001 µM
  relative viability: 0.959
HCC-366; first compound 0.003162 µM
  relative viability: 1.08
HCC-366; first compound 0.01 µM
  relative viability: 1.17
HCC-366; first compound 0.03162 µM
  relative viability: 0.916
HCC-366; first compound 0.1 µM
  relative viability: 0.953
SW 1573; first compound 0.001 µM
  relative viability: 0.949
SW 1573; first compound 0.003162 µM
  relative viability: 1.14
SW 1573; first compound 0.01 µM
  relative viability: 1.14
SW 1573; first compound 0.03162 µM
  relative viability: 0.753
SW 1573; first compound 0.1 µM
  relative viability: 0.808
NCI-H3122; first compound 0.001 µM
  relative viability: 1.02
NCI-H3122; first compound 0.003162 µM
  relative viability: 1.09
NCI-H3122; first compound 0.01 µM
  relative viability: 1.08
NCI-H3122; first compound 0.03162 µM
  relative viability: 0.929
NCI-H3122; first compound 0.1 µM
  relative viability: 0.68
NCI-H2009; first compound 0.001 µM
  relative viability: 1.12
NCI-H2009; first compound 0.003162 µM
  relative viability: 1.41
NCI-H2009; first compound 0.01 µM
  relative viability: 1.32
NCI-H2009; first compound 0.03162 µM
  relative viability: 1.16
NCI-H2009; first compound 0.1 µM
  relative viability: 1.1
ABC-1; first compound 0.001 µM
  relative viability: 0.963
ABC-1; first compound 0.003162 µM
  relative viability: 1.32
ABC-1; first compound 0.01 µM
  relative viability: 1.17
ABC-1; first compound 0.03162 µM
  relative viability: 0.918
ABC-1; first compound 0.1 µM
  relative viability: 1.32
EPLC-272H; first compound 0.001 µM
  relative viability: 0.48
EPLC-272H; first compound 0.003162 µM
  relative viability: 0.658
EPLC-272H; first compound 0.01 µM
  relative viability: 0.688
EPLC-272H; first compound 0.03162 µM
  relative viability: 0.435
EPLC-272H; first compound 0.1 µM
  relative viability: 0.195
HCC-15; first compound 0.001 µM
  relative viability: 0.975
HCC-15; first compound 0.003162 µM
  relative viability: 1.25
HCC-15; first compound 0.01 µM
  relative viability: 1.09
HCC-15; first compound 0.03162 µM
  relative viability: 0.858
HCC-15; first compound 0.1 µM
  relative viability: 0.754
PC-14; first compound 0.001 µM
  relative viability: 0.974
PC-14; first compound 0.003162 µM
  relative viability: 1.11
PC-14; first compound 0.01 µM
  relative viability: 1.07
PC-14; first compound 0.03162 µM
  relative viability: 0.845
PC-14; first compound 0.1 µM
  relative viability: 0.928
NCI-H1355; first compound 0.001 µM
  relative viability: 0.907
NCI-H1355; first compound 0.003162 µM
  relative viability: 1.19
NCI-H1355; first compound 0.01 µM
  relative viability: 1.25
NCI-H1355; first compound 0.03162 µM
  relative viability: 0.893
NCI-H1355; first compound 0.1 µM
  relative viability: 0.992
NCI-H2228; first compound 0.003162 µM
  relative viability: 0.99
NCI-H2228; first compound 0.01 µM
  relative viability: 1.06
NCI-H2228; first compound 0.03162 µM
  relative viability: 0.549
NCI-H2228; first compound 0.1 µM
  relative viability: 0.8
NCI-H2347; first compound 0.001 µM
  relative viability: 1.14
NCI-H2347; first compound 0.003162 µM
  relative viability: 0.65
NCI-H2347; first compound 0.01 µM
  relative viability: 0.6
NCI-H2347; first compound 0.03162 µM
  relative viability: 0.77
NCI-H2347; first compound 0.1 µM
  relative viability: 0.501
NCI-H1944; first compound 0.001 µM
  relative viability: 0.907
NCI-H1944; first compound 0.003162 µM
  relative viability: 1.05
NCI-H1944; first compound 0.01 µM
  relative viability: 1.06
NCI-H1944; first compound 0.03162 µM
  relative viability: 0.739
NCI-H1793; first compound 0.001 µM
  relative viability: 0.768
NCI-H1793; first compound 0.003162 µM
  relative viability: 1.02
NCI-H1793; first compound 0.01 µM
  relative viability: 0.79
NCI-H1793; first compound 0.03162 µM
  relative viability: 0.542
NCI-H1793; first compound 0.1 µM
  relative viability: 0.582
NCI-H2085; first compound 0.001 µM
  relative viability: 0.919
NCI-H2085; first compound 0.003162 µM
  relative viability: 1.09
NCI-H2085; first compound 0.01 µM
  relative viability: 1.17
NCI-H2085; first compound 0.03162 µM
  relative viability: 0.84
NCI-H2085; first compound 0.1 µM
  relative viability: 0.801
HCC-827; first compound 0.003162 µM
  relative viability: 1.13
HCC-827; first compound 0.01 µM
  relative viability: 1.06
HCC-827; first compound 0.03162 µM
  relative viability: 0.939
HCC-827; first compound 0.1 µM
  relative viability: 0.938
ChaGo-K-1; first compound 0.001 µM
  relative viability: 0.799
ChaGo-K-1; first compound 0.003162 µM
  relative viability: 1.09
ChaGo-K-1; first compound 0.01 µM
  relative viability: 1.03
ChaGo-K-1; first compound 0.03162 µM
  relative viability: 0.582
ChaGo-K-1; first compound 0.1 µM
  relative viability: 0.756
LCLC-103H; first compound 0.001 µM
  relative viability: 0.737
LCLC-103H; first compound 0.003162 µM
  relative viability: 0.86
LCLC-103H; first compound 0.01 µM
  relative viability: 0.837
LCLC-103H; first compound 0.03162 µM
  relative viability: 0.581
LCLC-103H; first compound 0.1 µM
  relative viability: 0.67
NCI-H2405; first compound 0.001 µM
  relative viability: 1.05
NCI-H2405; first compound 0.003162 µM
  relative viability: 1.05
NCI-H2405; first compound 0.01 µM
  relative viability: 1.03
NCI-H2405; first compound 0.03162 µM
  relative viability: 0.956
NCI-H2405; first compound 0.1 µM
  relative viability: 0.98
NCI-H1734; first compound 0.001 µM
  relative viability: 0.771
NCI-H1734; first compound 0.01 µM
  relative viability: 0.895
NCI-H1734; first compound 0.03162 µM
  relative viability: 0.646
NCI-H1734; first compound 0.1 µM
  relative viability: 0.628
